From patent US9249127B2 (Orion Corporation, priority 2012, dated 2016) come the findings set out here.

Read-outs that look alike come from different tables or passages of the source.

The target in this test is T1, alpha2A receptor (Homo sapiens, UniProt P08913).
T1 sequence (P08913 1-465): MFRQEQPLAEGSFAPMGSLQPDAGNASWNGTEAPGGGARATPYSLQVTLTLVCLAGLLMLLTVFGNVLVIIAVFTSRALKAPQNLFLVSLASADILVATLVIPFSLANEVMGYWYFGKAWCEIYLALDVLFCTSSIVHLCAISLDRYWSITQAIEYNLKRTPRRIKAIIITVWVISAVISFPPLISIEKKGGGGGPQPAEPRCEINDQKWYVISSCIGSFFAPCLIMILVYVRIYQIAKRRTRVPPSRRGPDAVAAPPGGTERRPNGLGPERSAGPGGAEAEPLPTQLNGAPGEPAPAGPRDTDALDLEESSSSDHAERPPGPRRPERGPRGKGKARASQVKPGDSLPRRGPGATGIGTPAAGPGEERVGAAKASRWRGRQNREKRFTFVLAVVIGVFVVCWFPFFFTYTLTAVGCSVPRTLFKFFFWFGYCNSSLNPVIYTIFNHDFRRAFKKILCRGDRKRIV
The test is described as follows: Alpha2A agonistic activity in vitro. Type of test: cell-based.

[1] abbreviates: in vitro, read-out: Alpha2A Agonism pEC50 (converted).
Where [2] appears, read: Alpha2A Agonism pEC50, in vitro.

With `COc1cccc2c1CCSC2C1=NCCN1` (stereo not drawn) [Example 70, 2-(5-Methoxyisothiochroman-1-yl)-4,5-dihydro-1H-imidazole], the “Alpha2A Intrinsic Activity” value (in vitro) stood at 0.07. For the same compound, the EC50 under setting [1] was 2000 nM. On to `FC(F)(F)CC1Cc2c(Br)cccc2C(C2=NCCN2)O1` (single isomer, unassigned) [Example 83], for which, under “in vitro”, the “Alpha2A Intrinsic Activity” value is listed as 0.41. Further, the EC50 under setting [1] was 126 nM. Regarding `C[C@@H]1Cc2c(Br)cccc2C(C2=NCCN2)O1` (stereo partly drawn) [Example 32, 2-((3R)-5-bromo-3-methylisochroman-1-yl)-4,5-dihydro-1H-imidazole], the EC50 under setting [2] was 1 nM. Where the note is “in vitro”, the “Alpha2A Intrinsic Activity” value came to 0.92. On to `COCC1Cc2c(C)cccc2C(C2=NCCN2)O1` (stereo not drawn) [Example 74, 2-(5-Methyl-3-(methoxymethyl)isochroman-1-yl)-4,5-dihydro-1H-imidazole], for which the “Alpha2A Intrinsic Activity” value (in vitro) came to 0.35. Besides, under setting [1], the EC50 is 794 nM.

`CC1(C2=NCCN2)OCCc2c(Br)cccc21` (single isomer, unassigned) [Example 106, 2-(5-bromo-1-methylisochroman-1-yl)-4,5-dihydro-1H-imidazole]: the “Alpha2A Intrinsic Activity” value (in vitro) is 0.64. The EC50 under setting [1] is 158 nM. The matching figures for `CC1Cc2c(Br)cccc2C(C2=NCCN2)S1` (stereo not drawn) [Example 63, 2-(5-Bromo-3-methylisothiochroman-1-yl)-4,5-dihydro-1H-imidazole]: 0.85 and 3160 nM.

Consider `CC[C@@H]1Cc2c(C)cccc2C(C2=NCCN2)O1` (stereo partly drawn) [Example 48, 2-((3R)-3-ethyl-5-methylisochroman-1-yl)-4,5-dihydro-1H-imidazole], for which, under setting [2], the EC50 was 25.1 nM. For the same compound, the “Alpha2A Intrinsic Activity” value (in vitro) worked out at 0.58.

Under setting [2], `CCC1Cc2c(C)cccc2C(C2=NCCN2)O1` (stereo not drawn) [Example 27, 2-(3-Ethyl-5-methylisochroman-1-yl)-4,5-dihydro-1H-imidazole] gave an EC50 of 25.1 nM. Further, the “Alpha2A Intrinsic Activity” value (in vitro) is on record as 0.69.

As for `C[C@@H]1Cc2c(OC(F)(F)F)cccc2C(C2=NCCN2)O1` (stereo partly drawn) [Example 49, 2-((3R)-3-methyl-5-(trifluoromethoxy)isochroman-1-yl)-4,5-dihydro-1H-imidazole], the “Alpha2A Intrinsic Activity” value (in vitro) worked out at 0.35. In addition, the EC50 under setting [1] was 126 nM. The compound `Cc1cccc2c1CCOC2C1=NCCN1` (stereo not drawn) [Example 1, 2-(5-Methylisochroman-1-yl)-4,5-dihydro-1H-imidazole] had an EC50 under setting [2] of 3.98 nM. Further, the “Alpha2A Intrinsic Activity” value (in vitro) came to 0.89. `CC#Cc1cccc2c1CCOC2C1=NCCN1` (stereo not drawn) [Example 55, 2-(5-(Prop-1-yn-1-yl)isochroman-1-yl)-4,5-dihydro-1H-imidazole]: the “Alpha2A Intrinsic Activity” value (in vitro) is 0.80. Further, under setting [1], the EC50 was 126 nM. The matching figures for `CCc1cccc2c1C[C@@H](C)OC2(C)C1=NCCN1` (stereo partly drawn) [Example 73, 2-((3R)-5-ethyl-1,3-dimethylisochroman-1-yl)-4,5-dihydro-1H-imidazole]: 0.19 and 1580 nM. Under setting [2], `COc1cccc2c1CC(C)OC2C1=NCCN1` (stereo not drawn) [Example 38, 2-(5-Methoxy-3-methylisochroman-1-yl)-4,5-dihydro-1H-imidazole] had an EC50 of 12.6 nM. Further, for the setting “in vitro”, the “Alpha2A Intrinsic Activity” value came to 0.92. For the compound `COc1cccc2c1CCOC2C1=NCCN1` (single isomer, unassigned) [Example 82, 2-(5-methoxyisochroman-1-yl)-4,5-dihydro-1H-imidazole], where the note is “in vitro”, the “Alpha2A Intrinsic Activity” value is 0.52. For the same compound, under setting [1], the EC50 is 158 nM.

`COc1cccc2c1CCOC2C1=NCCN1` (stereo not drawn) [Example 17, 2-(5-Methoxyisochroman-1-yl)-4,5-dihydro-1H-imidazole]: the “Alpha2A Intrinsic Activity” value (in vitro) came to 0.81. Moreover, the EC50 under setting [1] was 25.1 nM. The matching figures for `CCC1Cc2c(Br)cc(Br)cc2C(C2=NCCN2)O1` (stereo not drawn) [Example 67, 2-(5,7-Dibromo-3-ethylisochroman-1-yl)-4,5-dihydro-1H-imidazole]: 0.42 and 1000 nM. On to `Ic1cccc2c1CCOC2C1=NCCN1` (stereo not drawn) [Example 18, 2-(5-Iodoisochroman-1-yl)-4,5-dihydro-1H-imidazole], for which the EC50 under setting [2] is 2 nM. Besides, the “Alpha2A Intrinsic Activity” value (in vitro) was found to be 0.81. The matching figures for `Clc1cccc2c1CCOC2C1=NCCN1` (single isomer, unassigned) [Example 92, 2-(5-chloroisochroman-1-yl)-4,5-dihydro-1H-imidazole]: 31.6 nM and 0.78. Turning to `Cc1cc(C)c2c(c1)C(C1=NCCN1)OCC2` (stereo not drawn) [Example 59, 2-(5,7-Dimethylisochroman-1-yl)-4,5-dihydro-1H-imidazole], the EC50 under setting [2] was 39.8 nM. Besides, where the note is “in vitro”, the “Alpha2A Intrinsic Activity” value came to 0.81. Consider `CCC1Cc2c(Br)cccc2C(C2=NCCN2)O1` (single isomer, unassigned) [Example 94, 2-(5-bromo-3-ethylisochroman-1-yl)-4,5-dihydro-1H-imidazole], for which, under setting [2], the EC50 is 25.1 nM. For the setting “in vitro”, the “Alpha2A Intrinsic Activity” value stood at 0.55. The matching figures for `Cc1cccc2c1CCOC2(C)C1=NCCN1` (single isomer, unassigned) [Example 21, 2-(1,5-Dimethylisochroman-1-yl)-4,5-dihydro-1H-imidazole]: 50.1 nM and 0.73.

For `COc1cccc2c1C[C@@H](C)OC2(C)C1=NCCN1` (stereo partly drawn) [Example 71, 2-((3R)-5-methoxy-1,3-dimethylisochroman-1-yl)-4,5-dihydro-1H-imidazole], where the note is “in vitro”, the “Alpha2A Intrinsic Activity” value is recorded as 0.33. The EC50 under setting [1] was 2000 nM. With `Cc1cccc2c1CC(C)SC2C1=NCCN1` (stereo not drawn) [Example 62, 2-(3,5-Dimethylisothiochroman-1-yl)-4,5-dihydro-1H-imidazole], the “Alpha2A Intrinsic Activity” value (in vitro) was 0.77.

On to `CC[C@@H]1Cc2c(Cl)cccc2C(C2=NCCN2)O1` (stereo partly drawn) [Example 12, 2-((3R)-5-chloro-3-ethylisochroman-1-yl)-4,5-dihydro-1H-imidazole], for which the “Alpha2A Intrinsic Activity” value (in vitro) is 0.94. In addition, under setting [1], the EC50 is 1580 nM.

The compound `CCC1Cc2c(Br)cccc2C(C2=NCCN2)O1` (stereo not drawn) [Example 43, 2-(5-Bromo-3-ethylisochroman-1-yl)-4,5-dihydro-1H-imidazole] showed an EC50 under setting [2] of 50.1 nM. For the same compound, the “Alpha2A Intrinsic Activity” value (in vitro) is 0.58. As for `Cc1cc(Br)cc2c1CCOC2C1=NCCN1` (stereo not drawn) [Example 60, 2-(7-Bromo-5-methylisochroman-1-yl)-4,5-dihydro-1H-imidazole], the “Alpha2A Intrinsic Activity” value (in vitro) is listed as 0.66. Also, the EC50 under setting [1] was 126 nM. The matching figures for `Cc1cccc2c1CC(CCF)OC2C1=NCCN1` (stereo not drawn) [Example 81, 2-(3-(2-Fluoroethyl)-5-methylisochroman-1-yl)-4,5-dihydro-1H-imidazole]: 0.54 and 158 nM. Take `FC(F)(F)Oc1cccc2c1CCOC2C1=NCCN1` (stereo not drawn) [Example 79, 2-(5-(Trifluoromethoxy)isochroman-1-yl)-4,5-dihydro-1H-imidazole]: the “Alpha2A Intrinsic Activity” value (in vitro) is recorded as 0.30. In addition, the EC50 under setting [1] is 398 nM. Turning to `CC1Cc2c(Br)cccc2C(C)(C2=NCCN2)O1` (stereo not drawn) [Example 31, 2-(5-Bromo-1,3-dimethylisochroman-1-yl)-4,5-dihydro-1H-imidazole], the “Alpha2A Intrinsic Activity” value (in vitro) is given as 0.43. Also, the EC50 under setting [1] is 1260 nM.
